Laboratory results published in PubChem BioAssay AID2060503 (Molecular Pharmacology Branch, DTP, NCI, 2025).

Test system: 817829-284-R-J1-PDC complex spheroids, viability
Assay: Anticancer human tumor 817829-284-R-J1-PDC patient-derived colon adenocarcinoma cell line growth inhibition [GQUAD]
Conditions: for IC50: curve of first compound; for viability, T/C: stronger effect = lower value
Method in brief: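 Tumor cells were grown as complex spheroids with HUVEC endothelial cells and mesenchymal stem cells as stroma. G-quadruplex stabilizers were combined with targeted agents over half-log dilutions from near the clinical Cmax, or from 10 microM.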

[1] = second compound 0.0316 µM, first compound 0.0316 µM
[2] = second compound 0.0316 µM, first compound 0.316 µM
[3] = second compound 0.1 µM, first compound 0.0316 µM
[4] = second compound 0.1 µM, first compound 0.316 µM
[5] = second compound 0.316 µM, first compound 0.0316 µM
[6] = second compound 0.316 µM, first compound 0.316 µM
[7] = second compound 1 µM, first compound 0.0316 µM
[8] = second compound 1 µM, first compound 0.316 µM
[9] = second compound 3.16 µM, first compound 0.0316 µM
[10] = second compound 3.16 µM, first compound 0.316 µM
[11] = second compound 10 µM, first compound 0.0316 µM
[12] = second compound 10 µM, first compound 0.316 µM
[13] = second compound 0.0316 µM, first compound 0.1 µM
[14] = second compound 0.0316 µM, first compound 1 µM
[15] = second compound 0.0316 µM, first compound 3.16 µM
[16] = second compound 0.0316 µM, first compound 10 µM
[17] = second compound 0.1 µM, first compound 0.1 µM
[18] = second compound 0.1 µM, first compound 1 µM
[19] = second compound 0.1 µM, first compound 3.16 µM
[20] = second compound 0.1 µM, first compound 10 µM
[21] = second compound 0.316 µM, first compound 0.1 µM
[22] = second compound 0.316 µM, first compound 1 µM
[23] = second compound 0.316 µM, first compound 3.16 µM
[24] = second compound 0.316 µM, first compound 10 µM
[25] = second compound 1 µM, first compound 0.1 µM
[26] = second compound 1 µM, first compound 1 µM
[27] = second compound 1 µM, first compound 3.16 µM
[28] = second compound 1 µM, first compound 10 µM
[29] = second compound 3.16 µM, first compound 0.1 µM
[30] = second compound 3.16 µM, first compound 1 µM
[31] = second compound 3.16 µM, first compound 3.16 µM
[32] = second compound 3.16 µM, first compound 10 µM
[33] = second compound 10 µM, first compound 0.1 µM
[34] = second compound 10 µM, first compound 1 µM
[35] = second compound 10 µM, first compound 3.16 µM
[36] = second compound 10 µM, first compound 10 µM
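Further: spheroids exposed to agents for 7 days before readout.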
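Wherever viability, T/C is given: percent viability relative to DMSO vehicle control taken as 100%.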

## CCc1c2c(nc3ccc(O)cc13)-c1cc3c(c(=O)n1C2)COC(=O)[C@]3(O)CC + Cc1[nH]c2ccc(F)cc2c1-c1nc2c3cccnc3c3ncccc3c2[nH]1
Second compound 0.0316 µM
  IC50: 1.74 nM
Second compound 0.1 µM
  IC50: 1.01 nM
Second compound 0.316 µM
  IC50: < 0.999 nM
Second compound 1 µM
  IC50: < 0.999 nM
Second compound 3.16 µM
  IC50: < 0.999 nM
Second compound 10 µM
  IC50: < 0.999 nM
Second compound 0.0316 µM, first compound 0.000999 µM
  viability, T/C: 65.2%
Second compound 0.0316 µM, first compound 0.00316 µM
  viability, T/C: 28.1%
Second compound 0.0316 µM, first compound 0.00999 µM
  viability, T/C: 30.3%
[1]
  viability, T/C: 13.1%
Second compound 0.0316 µM, first compound 0.0999 µM
  viability, T/C: 8.01%
[2]
  viability, T/C: 4.19%
Second compound 0.1 µM, first compound 0.000999 µM
  viability, T/C: 51.3%
Second compound 0.1 µM, first compound 0.00316 µM
  viability, T/C: 33.6%
Second compound 0.1 µM, first compound 0.00999 µM
  viability, T/C: 27.8%
[3]
  viability, T/C: 14.9%
Second compound 0.1 µM, first compound 0.0999 µM
  viability, T/C: 9.56%
[4]
  viability, T/C: 4.38%
Second compound 0.316 µM, first compound 0.000999 µM
  viability, T/C: 43.5%
Second compound 0.316 µM, first compound 0.00316 µM
  viability, T/C: 35.6%
Second compound 0.316 µM, first compound 0.00999 µM
  viability, T/C: 23.6%
[5]
  viability, T/C: 16.7%
Second compound 0.316 µM, first compound 0.0999 µM
  viability, T/C: 8.62%
[6]
  viability, T/C: 5.24%
Second compound 1 µM, first compound 0.000999 µM
  viability, T/C: 43%
Second compound 1 µM, first compound 0.00316 µM
  viability, T/C: 30.6%
Second compound 1 µM, first compound 0.00999 µM
  viability, T/C: 24.6%
[7]
  viability, T/C: 15%
Second compound 1 µM, first compound 0.0999 µM
  viability, T/C: 8.8%
[8]
  viability, T/C: 4.41%
Second compound 3.16 µM, first compound 0.000999 µM
  viability, T/C: 30.3%
Second compound 3.16 µM, first compound 0.00316 µM
  viability, T/C: 16.4%
Second compound 3.16 µM, first compound 0.00999 µM
  viability, T/C: 13.8%
[9]
  viability, T/C: 10.8%
Second compound 3.16 µM, first compound 0.0999 µM
  viability, T/C: 5.28%
[10]
  viability, T/C: 2.61%
Second compound 10 µM, first compound 0.000999 µM
  viability, T/C: 6.96%
Second compound 10 µM, first compound 0.00316 µM
  viability, T/C: 7.65%
Second compound 10 µM, first compound 0.00999 µM
  viability, T/C: 4.74%
[11]
  viability, T/C: 5.66%
Second compound 10 µM, first compound 0.0999 µM
  viability, T/C: 3.66%
[12]
  viability, T/C: 1.35%

## COc1cccc2c1C(=O)c1c(O)c3c(c(O)c1C2=O)CC(O)(C(=O)CO)CC3OC1CC(N)C(O)C(C)O1 (stereo not drawn) + Cc1[nH]c2ccc(F)cc2c1-c1nc2c3cccnc3c3ncccc3c2[nH]1
Second compound 0.0316 µM
  IC50: 88.3 nM
Second compound 0.1 µM
  IC50: 94.3 nM
Second compound 0.316 µM
  IC50: 98.7 nM
Second compound 1 µM
  IC50: 84.4 nM
Second compound 3.16 µM
  IC50: 64 nM
Second compound 10 µM
  IC50: < 31.6 nM
[1]
  viability, T/C: 106%
[13]
  viability, T/C: 31.4%
[2]
  viability, T/C: 35.2%
[14]
  viability, T/C: 9.62%
[15]
  viability, T/C: 0.98%
[16]
  viability, T/C: 0.2%
[3]
  viability, T/C: 79.8%
[17]
  viability, T/C: 46.1%
[4]
  viability, T/C: 29.7%
[18]
  viability, T/C: 14%
[19]
  viability, T/C: 0.63%
[20]
  viability, T/C: 0.15%
[5]
  viability, T/C: 86.2%
[21]
  viability, T/C: 44.8%
[6]
  viability, T/C: 32.1%
[22]
  viability, T/C: 14.2%
[23]
  viability, T/C: 0.67%
[24]
  viability, T/C: 0.16%
[7]
  viability, T/C: 80.5%
[25]
  viability, T/C: 38%
[8]
  viability, T/C: 31.3%
[26]
  viability, T/C: 13.7%
[27]
  viability, T/C: 1%
[28]
  viability, T/C: 0.19%
[9]
  viability, T/C: 80.9%
[29]
  viability, T/C: 26.3%
[10]
  viability, T/C: 18.9%
[30]
  viability, T/C: 7.18%
[31]
  viability, T/C: 0.69%
[32]
  viability, T/C: 0.27%
[11]
  viability, T/C: 22.1%
[33]
  viability, T/C: 12.8%
[12]
  viability, T/C: 11.3%
[34]
  viability, T/C: 3.41%
[35]
  viability, T/C: 0.48%
[36]
  viability, T/C: 0.46%

## Cc1cccc(N(C)C(=O)C2C(O)CCN2c2nc(C)cc(C(F)(F)F)c2C#N)c1 (stereo not drawn) + Cc1[nH]c2ccc(F)cc2c1-c1nc2c3cccnc3c3ncccc3c2[nH]1
Second compound 0.0316 µM
  IC50: > 10000 nM
Second compound 0.1 µM
  IC50: > 10000 nM
Second compound 0.316 µM
  IC50: > 10000 nM
Second compound 1 µM
  IC50: > 10000 nM
Second compound 3.16 µM
  IC50: > 10000 nM
Second compound 10 µM
  IC50: > 10000 nM
[1]
  viability, T/C: 103%
[13]
  viability, T/C: 86.2%
[2]
  viability, T/C: 99.9%
[14]
  viability, T/C: 78%
[15]
  viability, T/C: 97.6%
[16]
  viability, T/C: 95.3%
[3]
  viability, T/C: 78.9%
[17]
  viability, T/C: 97.7%
[4]
  viability, T/C: 89.7%
[18]
  viability, T/C: 102%
[19]
  viability, T/C: 101%
[20]
  viability, T/C: 105%
[5]
  viability, T/C: 90.9%
[21]
  viability, T/C: 116%
[6]
  viability, T/C: 99.3%
[22]
  viability, T/C: 115%
[23]
  viability, T/C: 111%
[24]
  viability, T/C: 100%
[7]
  viability, T/C: 96.6%
[25]
  viability, T/C: 103%
[8]
  viability, T/C: 106%
[26]
  viability, T/C: 98.7%
[27]
  viability, T/C: 100%
[28]
  viability, T/C: 90%
[9]
  viability, T/C: 94.9%
[29]
  viability, T/C: 96.1%
[10]
  viability, T/C: 82.5%
[30]
  viability, T/C: 99.2%
[31]
  viability, T/C: 98.2%
[32]
  viability, T/C: 96.7%
[11]
  viability, T/C: 83.3%
[33]
  viability, T/C: 96.4%
[12]
  viability, T/C: 96.4%
[34]
  viability, T/C: 55.3%
[35]
  viability, T/C: 82.6%
[36]
  viability, T/C: 63.2%

## O=c1[nH]cc(F)c(=O)[nH]1 + Cc1[nH]c2ccc(F)cc2c1-c1nc2c3cccnc3c3ncccc3c2[nH]1
Second compound 0.0316 µM
  IC50: 1590 nM
Second compound 0.1 µM
  IC50: 1940 nM
Second compound 0.316 µM
  IC50: 1990 nM
Second compound 1 µM
  IC50: 1880 nM
Second compound 3.16 µM
  IC50: 684 nM
Second compound 10 µM
  IC50: 234 nM
[1]
  viability, T/C: 113%
[13]
  viability, T/C: 92.3%
[2]
  viability, T/C: 106%
[14]
  viability, T/C: 58.9%
[15]
  viability, T/C: 42.2%
[16]
  viability, T/C: 31.4%
[3]
  viability, T/C: 86.8%
[17]
  viability, T/C: 101%
[4]
  viability, T/C: 115%
[18]
  viability, T/C: 68.9%
[19]
  viability, T/C: 40.5%
[20]
  viability, T/C: 31.5%
[5]
  viability, T/C: 91.1%
[21]
  viability, T/C: 113%
[6]
  viability, T/C: 137%
[22]
  viability, T/C: 69.2%
[23]
  viability, T/C: 40.3%
[24]
  viability, T/C: 33.8%
[7]
  viability, T/C: 92.2%
[25]
  viability, T/C: 113%
[8]
  viability, T/C: 113%
[26]
  viability, T/C: 67.3%
[27]
  viability, T/C: 39.1%
[28]
  viability, T/C: 32.2%
[9]
  viability, T/C: 106%
[29]
  viability, T/C: 106%
[10]
  viability, T/C: 87.6%
[30]
  viability, T/C: 31.3%
[31]
  viability, T/C: 27.5%
[32]
  viability, T/C: 20.4%
[11]
  viability, T/C: 31.7%
[33]
  viability, T/C: 73.2%
[12]
  viability, T/C: 48.5%
[34]
  viability, T/C: 15.9%
[35]
  viability, T/C: 7.19%
[36]
  viability, T/C: 8.78%
